According to ChEMBL document CHEMBL1201862, “PubChem BioAssay data set” (2004):
Blank lines part the entries; values can stand above or below the molecule they belong to. Activity calls are given as the source filed them.

Assays:
[1] = viability of uninfected HEp-2 cells – cell-based, HTS, cytotoxicity control for RSV inhibitor project, dose response (AID 2410); format: functional; conditions: human respiratory syncytial virus
Protein Wnt-3a = Protein Wnt-3a (Mus musculus, UniProt P27467); test: antagonism of Wnt3a pathway luciferase reporter – Wnt-LIGHT cells, luminescence, selectivity assay for Gli-SUFU antagonist project, dose response (AID 651570); format: functional; conditions: read-out: IC50_Mean;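 note: Wnt-LIGHT reporter cells stimulated with conditioned medium from Wnt3a-producing cells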
Chain of Protein Wnt-3a (P27467 whole entry): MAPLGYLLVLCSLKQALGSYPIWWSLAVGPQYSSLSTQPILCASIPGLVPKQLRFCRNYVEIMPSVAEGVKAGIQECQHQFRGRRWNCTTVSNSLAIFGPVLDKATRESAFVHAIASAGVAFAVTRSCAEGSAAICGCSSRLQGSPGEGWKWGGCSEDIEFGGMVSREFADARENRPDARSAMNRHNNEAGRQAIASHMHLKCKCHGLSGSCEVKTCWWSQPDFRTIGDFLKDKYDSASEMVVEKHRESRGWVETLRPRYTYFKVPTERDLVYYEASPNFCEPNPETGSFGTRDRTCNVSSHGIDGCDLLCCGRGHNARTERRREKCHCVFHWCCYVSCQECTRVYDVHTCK

INS1 = test: INS-1E survival protection against cytokine death – cell-based, luminescence, retest, dose response (AID 449756); format: functional; conditions: Rattus norvegicus;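 note: cell death triggered by IL-1 beta plus TNF-alpha plus IFN-gamma mixture; protective hits raise ATP signal compared with cytokine alone wells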
[2] = bead-based luminescence quenchers, dual-tagged ARNT – biochemical, AlphaScreen, cherry-pick, artefact control for ARNT-TACC3 interaction inhibitor project, dose response (AID 651705); format: functional;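 note: AlphaScreen bead proximity signal that flags compounds interfering with the detection technology; potency reflects signal decrease which marks the compound as an assay artifact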
Aminopeptidase N = biological target: T1, Aminopeptidase N (Plasmodium falciparum FcB1/Columbia, UniProt O96935); test: malaria alanyl aminopeptidase activity blockers – biochemical, fluorogenic H-Leu-NHMec substrate, 1536-well (AID 1445); set-up: species or system Plasmodium falciparum 3D7, 3D7
T1 sequence (O96935 whole entry): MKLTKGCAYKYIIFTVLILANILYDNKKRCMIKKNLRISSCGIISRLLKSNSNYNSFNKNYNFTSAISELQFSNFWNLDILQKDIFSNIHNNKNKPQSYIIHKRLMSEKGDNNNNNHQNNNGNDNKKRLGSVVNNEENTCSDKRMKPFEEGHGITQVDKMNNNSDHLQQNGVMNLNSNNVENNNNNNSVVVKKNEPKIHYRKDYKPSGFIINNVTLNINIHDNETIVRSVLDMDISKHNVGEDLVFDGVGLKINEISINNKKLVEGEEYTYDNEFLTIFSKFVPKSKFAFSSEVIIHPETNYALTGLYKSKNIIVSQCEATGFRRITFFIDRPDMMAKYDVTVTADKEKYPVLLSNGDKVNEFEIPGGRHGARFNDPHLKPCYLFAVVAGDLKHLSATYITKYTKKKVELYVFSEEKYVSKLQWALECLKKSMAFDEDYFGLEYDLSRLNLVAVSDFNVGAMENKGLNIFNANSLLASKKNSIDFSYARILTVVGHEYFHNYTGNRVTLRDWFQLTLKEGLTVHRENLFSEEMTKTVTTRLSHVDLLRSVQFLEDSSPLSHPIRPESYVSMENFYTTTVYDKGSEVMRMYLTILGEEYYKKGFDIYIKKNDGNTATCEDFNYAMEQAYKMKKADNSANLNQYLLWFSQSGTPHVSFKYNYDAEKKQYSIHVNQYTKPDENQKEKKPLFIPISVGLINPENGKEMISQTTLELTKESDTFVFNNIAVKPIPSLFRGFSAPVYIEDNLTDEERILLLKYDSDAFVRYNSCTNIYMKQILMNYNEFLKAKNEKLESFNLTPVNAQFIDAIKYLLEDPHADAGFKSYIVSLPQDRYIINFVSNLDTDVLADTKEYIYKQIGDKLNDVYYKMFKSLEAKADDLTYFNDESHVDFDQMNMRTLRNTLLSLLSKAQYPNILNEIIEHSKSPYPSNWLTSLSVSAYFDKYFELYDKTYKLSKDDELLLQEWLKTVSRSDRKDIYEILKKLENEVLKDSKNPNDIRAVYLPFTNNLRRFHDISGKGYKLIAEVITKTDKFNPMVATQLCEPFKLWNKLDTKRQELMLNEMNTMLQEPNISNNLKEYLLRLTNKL

[3] = inhibition of ARNT PAS-B/TACC3 complex formation – biochemical, AlphaScreen, cherry-picked samples, confirmation (AID 651703); format: functional, Homo sapiens;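 note: His-tagged ARNT PAS-B domain paired with GST-TACC3 E629A dimer coactivator fragment; potency of inhibitors that break up the complex and lower AlphaScreen signal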

SMILES: Cc1ccc(Cl)cc1N1CCN(C(=O)CSc2nnc3n2C(C)(C)Cc2ccccc2-3)CC1
CC50 [1]: < 100 nM (active) | IC50 (Protein Wnt-3a): 4.43 µM (active) | AC50 (INS1): 5.01 µM (active)

IC50 (Aminopeptidase N): 31.4 µM (active)
SMILES: O=C(N/N=C\c1cccc([N+](=O)[O-])c1O)C1COc2ccccc2O1 (stereo unspecified)
AC50 [2]: 90.6 µM (active)

SMILES: Cn1ccnc1-c1nc2ccccc2nc1O
AC50 [3]: 71.9 µM (active)
